Measurements from ChEMBL document CHEMBL1139353, “Discovery of a new class of potential multifunctional atypical antipsychotic agents targeting dopamine D3 and serotonin 5-HT1A and 5-HT2A receptors: design, synthesis, and effects on behavior” (J Med Chem, 2009).
Active and inactive are the calls of the source. The calls are words filed in the database; no cut-off is given here.

Tests used:
D(1A) dopamine receptor = D(1A) dopamine receptor (Rattus norvegicus, UniProt P18901)
Description: Displacement of [3H]SCH23390 from dopamine D1 receptor in CRL:CD(SD)BR-COBS rat striatum by scintillation spectrometry

[1] = target: 5-hydroxytryptamine receptor 2A (Rattus norvegicus, UniProt P14842)
Description: Displacement of [3H]ketanserin from 5HT2A receptor in CRL:CD(SD)BR-COBS rat cortex by scintillation spectrometry

D(3) dopamine receptor = D(3) dopamine receptor (Homo sapiens, UniProt P35462); test: biochemical
Description: Displacement of [3H]7OH-DPAT from dopamine D3 receptor expressed in Sf9 cells by scintillation spectrometry

[2] = target: Voltage-gated inwardly rectifying potassium channel KCNH2 (Homo sapiens, UniProt Q12809)
Description: Binding affinity to human ERG expressed in HEK293 cells by whole cell patch clamp method

[3] = target: T1, 5-hydroxytryptamine receptor 1A (Rattus norvegicus, UniProt P19327); test: biochemical
T1 sequence (P19327 whole entry): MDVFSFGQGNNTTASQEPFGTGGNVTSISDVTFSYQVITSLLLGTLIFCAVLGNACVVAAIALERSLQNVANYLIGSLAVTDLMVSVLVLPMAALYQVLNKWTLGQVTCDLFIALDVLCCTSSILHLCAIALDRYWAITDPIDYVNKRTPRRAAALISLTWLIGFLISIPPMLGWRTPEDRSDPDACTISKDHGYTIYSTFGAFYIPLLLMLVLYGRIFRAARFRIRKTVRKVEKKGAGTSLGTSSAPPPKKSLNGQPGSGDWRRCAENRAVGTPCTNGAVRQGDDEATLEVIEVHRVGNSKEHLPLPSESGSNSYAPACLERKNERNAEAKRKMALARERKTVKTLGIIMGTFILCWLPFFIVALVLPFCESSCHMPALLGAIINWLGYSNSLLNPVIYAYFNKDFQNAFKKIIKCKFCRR
Description: Displacement of [3H]8OH-DPAT from 5HT1A receptor in CRL:CD(SD)BR-COBS rat hippocampus by scintillation spectrometry

Mus musculus [4] = organism: Mus musculus; test: animal or person; settings: NMRI
Description: Antipsychotic activity in NMRI mouse assessed as reduction in phencyclidine-induced locomotor activity administered 30 mins prior to testing measured for 60 mins

[5] = target: D(1A) dopamine receptor (Rattus norvegicus) (UniProt P18901); test: Displacement of [3H]SCH23390 from dopamine D1 receptor in CRL:CD(SD)BR-COBS rat striatum at 100 uM by scintillation spectrometry
Mus musculus [6] = organism: Mus musculus; settings: in vivo, 0.5 h
Description: Sedative activity in NMRI mouse assessed as reduction in spontaneous locomotor activity administered 30 mins prior to testing

Mus musculus [7] = organism: Mus musculus; test: animal or person; settings: NMRI; remark: listed apart in the source
Description: Antipsychotic activity in NMRI mouse assessed as reduction in methamphetamine-induced locomotor activity administered 30 mins prior to testing measured for 60 mins

Mus musculus [8] = organism: Mus musculus; settings: in vivo, sc, 1 h
Description: Toxicity in sc dosed NMRI mouse assessed as cataleptogenic potential administered 30 mins prior to testing measured every 15 mins for 60 mins by horizontal bar test

Chain of D(3) dopamine receptor (P35462 whole entry): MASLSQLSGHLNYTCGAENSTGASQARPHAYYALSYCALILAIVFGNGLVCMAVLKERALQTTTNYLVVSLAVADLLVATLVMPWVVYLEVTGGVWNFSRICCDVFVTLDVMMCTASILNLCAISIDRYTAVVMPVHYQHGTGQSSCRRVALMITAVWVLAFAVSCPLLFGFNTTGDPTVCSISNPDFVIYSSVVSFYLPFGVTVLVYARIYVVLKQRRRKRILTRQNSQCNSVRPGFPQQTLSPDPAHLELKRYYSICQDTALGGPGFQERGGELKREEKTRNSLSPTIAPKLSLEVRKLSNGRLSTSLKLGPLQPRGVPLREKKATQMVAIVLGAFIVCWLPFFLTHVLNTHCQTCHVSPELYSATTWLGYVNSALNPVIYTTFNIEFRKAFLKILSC
Chain of D(1A) dopamine receptor (P18901 whole entry): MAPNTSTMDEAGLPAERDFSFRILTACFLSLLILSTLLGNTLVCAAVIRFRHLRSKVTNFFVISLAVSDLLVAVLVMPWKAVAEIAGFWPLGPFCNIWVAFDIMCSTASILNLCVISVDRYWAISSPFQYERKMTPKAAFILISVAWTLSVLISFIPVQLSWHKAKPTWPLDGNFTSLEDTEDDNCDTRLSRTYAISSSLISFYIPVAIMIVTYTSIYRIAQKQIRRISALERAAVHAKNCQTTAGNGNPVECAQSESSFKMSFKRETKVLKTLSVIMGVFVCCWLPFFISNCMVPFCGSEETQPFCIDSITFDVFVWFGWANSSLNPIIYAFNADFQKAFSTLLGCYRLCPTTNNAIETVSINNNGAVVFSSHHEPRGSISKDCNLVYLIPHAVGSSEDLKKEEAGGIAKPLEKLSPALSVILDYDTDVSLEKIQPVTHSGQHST
Chain of 5-hydroxytryptamine receptor 2A (P14842 whole entry): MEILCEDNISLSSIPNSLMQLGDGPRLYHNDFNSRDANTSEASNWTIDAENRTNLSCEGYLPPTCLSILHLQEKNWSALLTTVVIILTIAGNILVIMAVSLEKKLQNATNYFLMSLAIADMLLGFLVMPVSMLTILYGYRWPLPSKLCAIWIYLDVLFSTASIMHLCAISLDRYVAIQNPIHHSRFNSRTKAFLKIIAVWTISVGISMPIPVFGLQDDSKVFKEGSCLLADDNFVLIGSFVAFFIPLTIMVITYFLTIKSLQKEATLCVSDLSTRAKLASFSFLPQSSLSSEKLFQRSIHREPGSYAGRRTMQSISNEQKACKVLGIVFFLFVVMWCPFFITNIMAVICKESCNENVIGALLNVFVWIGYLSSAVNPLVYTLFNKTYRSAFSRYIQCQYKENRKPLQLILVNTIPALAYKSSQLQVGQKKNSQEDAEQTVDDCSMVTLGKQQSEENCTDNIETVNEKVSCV
Chain of Voltage-gated inwardly rectifying potassium channel KCNH2 (Q12809 whole entry): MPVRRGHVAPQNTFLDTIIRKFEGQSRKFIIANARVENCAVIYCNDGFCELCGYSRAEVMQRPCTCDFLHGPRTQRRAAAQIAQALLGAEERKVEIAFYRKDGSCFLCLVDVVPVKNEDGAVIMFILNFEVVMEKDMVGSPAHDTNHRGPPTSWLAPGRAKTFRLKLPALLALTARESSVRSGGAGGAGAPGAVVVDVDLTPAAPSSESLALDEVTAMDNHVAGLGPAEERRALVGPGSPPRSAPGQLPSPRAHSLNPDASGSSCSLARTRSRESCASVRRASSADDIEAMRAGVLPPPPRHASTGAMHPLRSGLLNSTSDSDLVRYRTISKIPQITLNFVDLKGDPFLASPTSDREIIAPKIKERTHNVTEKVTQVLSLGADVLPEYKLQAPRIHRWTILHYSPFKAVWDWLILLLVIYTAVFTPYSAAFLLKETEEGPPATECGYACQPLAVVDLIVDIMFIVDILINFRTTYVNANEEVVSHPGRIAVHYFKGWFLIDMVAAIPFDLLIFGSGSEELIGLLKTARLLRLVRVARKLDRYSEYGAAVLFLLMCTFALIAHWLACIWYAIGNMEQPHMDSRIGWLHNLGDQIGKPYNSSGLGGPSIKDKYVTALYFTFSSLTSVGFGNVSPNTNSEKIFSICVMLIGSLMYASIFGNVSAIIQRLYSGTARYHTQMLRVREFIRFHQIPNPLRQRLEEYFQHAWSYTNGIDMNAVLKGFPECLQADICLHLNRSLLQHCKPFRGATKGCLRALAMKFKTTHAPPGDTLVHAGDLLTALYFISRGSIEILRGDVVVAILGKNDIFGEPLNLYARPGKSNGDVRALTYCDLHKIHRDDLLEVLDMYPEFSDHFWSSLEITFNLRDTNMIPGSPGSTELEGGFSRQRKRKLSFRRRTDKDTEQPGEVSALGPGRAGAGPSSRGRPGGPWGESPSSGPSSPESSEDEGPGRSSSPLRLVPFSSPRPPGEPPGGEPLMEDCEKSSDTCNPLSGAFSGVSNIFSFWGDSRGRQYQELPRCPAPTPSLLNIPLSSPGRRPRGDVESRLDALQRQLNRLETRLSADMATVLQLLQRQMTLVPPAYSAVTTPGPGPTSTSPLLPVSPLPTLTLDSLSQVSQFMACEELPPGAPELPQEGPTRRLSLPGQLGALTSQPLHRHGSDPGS
Chain of D(1A) dopamine receptor (Rattus norvegicus) (P18901 whole entry): as the sequence (P18901 whole entry) above

| Ki (D(1A) dopamine receptor) [µM] | Ki [1] [nM] | Ki (D(3) dopamine receptor) [nM] | Activity [5] | SMILES | Ki [2] [nM] | Ki [3] [nM] | ED50 (Mus musculus [4]) [mg/kg] | ED50 (Mus musculus [6]) [mg/kg] | ED50 (Mus musculus [7]) [mg/kg] | ED50 (Mus musculus [8]) [mg/kg] |
| --- | --- | --- | --- | --- | --- | --- | --- | --- | --- | --- |
| 4.32 | 300 | 3.2 | – | O=C1c2cc3ccccc3n2CCN1CCCCN1CCN(c2ccc(Cl)cc2Cl)CC1 | – | – | – | – | – | – |
| > 10 | 164 | 33.5 | – | COc1cccc2cc3n(c12)CCN(CCCCNC(=O)C1=Cc2ccccc2CN1)C3 | 1840 | 28 | – | – | – | – |
| > 10 | 389 | 3.7 | – | N#Cc1cccc(N2CCN(CCCCN3CCn4c(cc5ccccc54)C3=O)CC2)c1 | – | – | – | – | – | – |
| – | – | – | – | O=C(NCCCCN1CCN(c2ccc(Cl)cc2Cl)CC1)c1cc2ccccc2[nH]1 | – | – | > 30 | – | – | – |
| > 10 | – | 0.54 | – | N#Cc1cccc(N2CCN(CCCCNC(=O)c3cc4ccccc4o3)CC2)c1 | 390 | – | – | – | – | – |
| – | – | 0.38 | – | O=C(NCCCCN1CCN(c2ccc(Cl)cc2Cl)CC1)c1cc2cc(Cl)ccc2[nH]1 | – | – | > 30 | – | – | – |
| – | 127 | 8.2 | inactive | Clc1cccc(N2CCN(CCCCOc3ccc4cccnc4c3)CC2)c1Cl | – | 4 | – | – | – | – |
| – | 123 | 32.9 | – | Clc1cccc(N2CCN(CCCCOc3cc4ccccc4cn3)CC2)c1Cl | 160 | 24.2 | – | – | – | – |
| – | – | – | – | CN1CCN(C2=Nc3cc(Cl)ccc3Nc3ccccc32)CC1 [CLOZAPINE] | – | – | 1.1 | 2.4 | 2.5 | > 30 |
| – | – | – | – | O=C(CCCN1CCC(O)(c2ccc(Cl)cc2)CC1)c1ccc(F)cc1 [HALOPERIDOL] | – | – | 0.09 | 0.08 | – | 0.19 |
| – | – | – | – | Cc1cc2c(s1)Nc1ccccc1N=C2N1CCN(C)CC1 [OLANZAPINE] | 36000 | – | – | – | – | – |
| 5.5 | 23.4 | 0.27 | – | O=C(NCCCCN1CCN(c2cccc(Cl)c2)CC1)c1cc2ccccc2cn1 | 300 | 14.7 | 6.7 | 14 | 4.2 | – |

| SMILES | Ki (D(1A) dopamine receptor) [µM] | Ki [1] [nM] | Ki (D(3) dopamine receptor) [nM] | Activity [5] | Ki [2] [nM] | Ki [3] [nM] | ED50 (Mus musculus [4]) [mg/kg] | ED50 (Mus musculus [6]) [mg/kg] | ED50 (Mus musculus [7]) [mg/kg] | ED50 (Mus musculus [8]) [mg/kg] |
| --- | --- | --- | --- | --- | --- | --- | --- | --- | --- | --- |
| O=C1c2cc3ccccc3n2CCN1CCCCN1CCN(c2cccc(Cl)c2Cl)CC1 | 4.37 | 83 | 0.105 | – | 200 | 9.3 | > 3 | > 30 | 3.7 | – |
| Clc1cccc(N2CCN(CCCCCOc3cc4ccccc4cn3)CC2)c1Cl | – | 57 | 0.14 | – | 210 | 18 | > 10 | > 30 | > 10 | – |
| COc1cccc2c1C1CCN(CCCCNC(=O)C3=Cc4ccccc4CN3)CC1=N2 (stereo not given) | > 10 | 149 | 6 | – | – | 118 | – | – | – | – |
| COc1cccc2cc3n(c12)CCN(CCCCN1CCn2c(cc4ccccc42)C1=O)C3 | > 10 | 200 | 8.6 | – | 260 | 33 | – | – | – | – |
| O=C(NCCCCN1CCN(c2cccc(Cl)c2Cl)CC1)c1cc2ccccc2cn1 | 4.6 | 41 | 0.099 | – | 200 | 5 | – | – | – | – |
